Reference: patent US20230405136A1, “New Combinations of Boron Compounds and Adjuvants for the Treatment of Pathophysiological Conditions and Cancer and for Muscle Regeneration” (Consorcio Centro De Investigacion Biomedica En Red, M.P., priority 2020, published 2023)

Tests used:
Format in all cases: cell-based
human DM1 cells = test: Myotube formation (sarcomeric α-actinin immunofluorescence) in DM1 muscle cells; conditions: 8 days
Protocol: (§1) Briefly, the aforementioned cells (DMD, DM1 and WT) were cultured and maintained in 75 cm 2 flasks with skeletal growth medium (Promocell skeletal muscle cell basal medium supplemented with growth factors, calf serum and P/S 1%) at 37° C. in a humidified atmosphere of 5% CO2, until 80% confluence. […] After incubation with the FN coating for 1 h at RT, cells were then seeded at 40.000 cells/well (p-24 plate) in skeletal muscle cell basal medium.
(§2) For the examples where a boron compound was added, after the previous step, different amounts of the boron compound were added in the culture medium, Promocell skeletal muscle cell basal medium).
(§3) After 24 h of culture growth medium was changed by myoblast differentiation medium (DMEM high glucose/P/S 1%, insulin 10 μg/mL) and for the examples where the boron compound was added, then different amounts of boron compound were added. Differentiation medium was changed every 2 days and if necessary, the same amount of the boron compound, as previously incorporated was also added in every change. Myotube formation was evaluated after 8 days.
(§4) Cells were fixed with formalin 4% at the end of the culture for 30 minutes at 4° C. After fixing, cells were washed and conserved at 4° C. in DPBS. Starting with the fixed cells preserved at 4° C. in DPBS, samples were then rinsed with DPBS and permeabilised with DPBS/0.5% Triton X-100 at room temperature for 5 min. Samples were then incubated with sarcomeric α-actinin primary antibody (abcam, 1:200), muscle marker for immunofluorescence detection, in blocking buffer DPBS/2% BSA at 37° C. for 1 h or overnight at 4° C. The samples were then rinsed twice in DPBS/0.1% Triton X-100 and incubated with the secondary antibody anti mouse Cy3 (Invitrogen, 1:200) in blocking buffer at room temperature for 1 h. Finally, samples were washed twice in DPBS/0.1% Triton X-100 before mounting with Vectashield containing DAPI (Vector Laboratories) and observed under an epifluorescence microscope (Nikon Eclipse 80i).
(§5) Cells were cultured and maintained in 75 cm^2 flasks with skeletal growth medium (Promocell skeletal muscle cell basal medium supplemented with growth factors, calf serum and P/S 1%) at 37° C. in a humidified atmosphere of 5% CO2, until 80% confluence. […] After incubation with the FN coating for 1 h at RT, cells were then seeded at 40,000 cells/well (p-24 plate) in Promocell skeletal muscle cell basal medium. After 24 h of culture, growth medium was changed by myoblast differentiation medium (DMEM high glucose/P/S 1%, insulin 10 μg/mL) and different amounts of bortezomib 5.4 10^−6 μg (0.0000054 μg) Ex 1.1, 2.7 10^−5 μg (0.000027 μg) Ex 1.2, 5.4 10^−5 μg (0.000054 μg) Ex 1.3, and 1.1 10^−4 μg (0.00011 μg) Ex 1.4 (all non-cytotoxic concentrations) were added to each sample in the culture medium. Differentiation medium was changed every 2 days and the different amounts of bortezomib 5.4 10^−6 μg, 2.7 10^−5 μg, 5.4 10^−5 μg and 1.1 10^−4 μg, were added to each sample in every change. Myotube formation was evaluated after 8 days. Cells were fixed as described in the control samples. Afterwards, the samples were also rinsed and washed as described in the control samples. […]

[1] = system: human wild type (WT) cells; test: Myotube formation (sarcomeric α-actinin immunofluorescence) in wild type muscle cells; conditions: 8 days
Protocol: as §1, §2, §3, §4, §5

[2] = system: human WT, DMD and DM1 cells; test: Myotube formation, across WT, DMD and DM1 cells
Protocol: Briefly, the aforementioned cells (DMD, DM1 and WT) were cultured and maintained in 75 cm 2 flasks with skeletal growth medium (Promocell skeletal muscle cell basal medium supplemented with growth factors, calf serum and P/S 1%) at 37° C. in a humidified atmosphere of 5% CO2, until 80% confluence. Glass cover slip substrates (12 mm diameter) were sterilised with UV light for 30 min and then coated with 3.6 μg of fibronectin (FN). After incubation with the FN coating for 1 h at RT, cells were then seeded at 40.000 cells/well (p-24 plate) in skeletal muscle cell basal medium.
as §2, §3
Cells were fixed with formalin 4% at the end of the culture for 30 minutes at 4° C. After fixing, cells were washed and conserved at 4° C. in DPBS. Starting with the fixed cells preserved at 4° C. in DPBS, samples were then rinsed with DPBS and permeabilised with DPBS/0.5% Triton X-100 at room temperature for 5 min. Samples were then incubated with sarcomeric α-actinin primary antibody (abcam, 1:200), muscle marker for immunofluorescence detection, in blocking buffer DPBS/2% BSA at 37° C. for 1 h or overnight at 4° C. […]
Cells were cultured and maintained in 75 cm^2 flasks with skeletal growth medium (Promocell skeletal muscle cell basal medium supplemented with growth factors, calf serum and P/S 1%) at 37° C. in a humidified atmosphere of 5% CO2, until 80% confluence. […] Myotube formation was evaluated after 8 days. […]

human DMD cells [3] = test: Myotube formation (sarcomeric α-actinin immunofluorescence) in DMD muscle cells; conditions: 8 days
Protocol: as §1, §2, §3, §4, §5

human DMD cells [4] = test: as above; conditions: 8 days; remark: listed apart in the source
[5] = DM1, without fibronectin, bortezomib 1.1 10^−4 μg
[6] = DM1, without fibronectin, bortezomib 2.7 10^−5 μg
[7] = DM1, without fibronectin, bortezomib 5.4 10^−5 μg
[8] = DM1, without fibronectin, bortezomib 5.4 10^−6 μg
[9] = DM1-FN, with fibronectin (3.6 μg coating), bortezomib 1.1 10^−4 μg
[10] = DM1-FN, with fibronectin (3.6 μg coating), bortezomib 2.7 10^−5 μg
[11] = DM1-FN, with fibronectin (3.6 μg coating), bortezomib 5.4 10^−5 μg
[12] = DM1-FN, with fibronectin (3.6 μg coating), bortezomib 5.4 10^−6 μg
[13] = WT, without fibronectin, bortezomib 1.1 10^−4 μg
[14] = WT, without fibronectin, bortezomib 2.7 10^−5 μg
[15] = WT, without fibronectin, bortezomib 5.4 10^−5 μg
[16] = WT, without fibronectin, bortezomib 5.4 10^−6 μg
[17] = WT-FN, with fibronectin (3.6 μg coating), bortezomib 1.1 10^−4 μg
[18] = WT-FN, with fibronectin (3.6 μg coating), bortezomib 2.7 10^−5 μg
[19] = WT-FN, with fibronectin (3.6 μg coating), bortezomib 5.4 10^−5 μg
[20] = WT-FN, with fibronectin (3.6 μg coating), bortezomib 5.4 10^−6 μg
[21] = bortezomib added in the culture medium, 8 days
[22] = DMD, without fibronectin, bortezomib 2.7 10^−5 μg
[23] = DMD-FN, with fibronectin (3.6 μg coating), bortezomib 1.1 10^−4 μg
[24] = DMD-FN, with fibronectin (3.6 μg coating), bortezomib 2.7 10^−5 μg
[25] = DMD-FN, with fibronectin (3.6 μg coating), bortezomib 5.4 10^−5 μg
[26] = DMD-FN, with fibronectin (3.6 μg coating), bortezomib 5.4 10^−6 μg
[27] = DMD, without fibronectin, bortezomib 1.1 10^−4 μg
[28] = DMD, without fibronectin, bortezomib 5.4 10^−5 μg
[29] = DMD, without fibronectin, bortezomib 5.4 10^−6 μg

CC(C)C[C@H](NC(=O)[C@H](Cc1ccccc1)NC(=O)c1cnccn1)B(O)O [bortezomib, ((R)-3-Methyl-1-((S)-3-phenyl-2-(pyrazine-2-carboxamido)propanamido)butyl)boronic acid] was tested, and the “% of cell differentiation” value (human DM1 cells; [5]) was 1%, the myotube diameter (human DM1 cells; [5]) was 4 μm and the “% of cell differentiation” value (human DM1 cells; [6]) was 13%. For the same molecule, the myotube diameter (human DM1 cells; [6]) was 11 μm, the “% of cell differentiation” value (human DM1 cells; [7]) was 0.5% and the myotube diameter (human DM1 cells; [7]) was 4 μm. The “% of cell differentiation” value (human DM1 cells; [8]) was 14%, the myotube diameter (human DM1 cells; [8]) was 11 μm and the “% of cell differentiation” value (human DM1 cells; [9]) was 1%. For the same molecule, the myotube diameter (human DM1 cells; [9]) was 23 μm, the “% of cell differentiation” value (human DM1 cells; [10]) was 55% and the myotube diameter (human DM1 cells; [10]) was 79 μm. For the same molecule, the “% of cell differentiation” value (human DM1 cells; [11]) was 54%, the myotube diameter (human DM1 cells; [11]) was 130 μm and the “% of cell differentiation” value (human DM1 cells; [12]) was 37%. For the same molecule, the myotube diameter (human DM1 cells; [12]) was 44 μm, the “% of cell differentiation” value [1, 13] was 0% and the myotube diameter [1, 13] was 0 μm. For the same molecule, the “% of cell differentiation” value [1, 14] was 55%, the myotube diameter [1, 14] was 60 μm and the “% of cell differentiation” value [1, 15] was 45%. For the same molecule, the myotube diameter [1, 15] was 48 μm, the “% of cell differentiation” value [1, 16] was 47% and the myotube diameter [1, 16] was 32 μm. The “% of cell differentiation” value [1, 17] was 39%, the myotube diameter [1, 17] was 63 μm and the “% of cell differentiation” value [1, 18] was 79%. The myotube diameter [1, 18] was 319 μm, the “% of cell differentiation” value [1, 19] was 72% and the myotube diameter [1, 19] was 270 μm. For the same molecule, the “% of cell differentiation” value [1, 20] was 70%, the myotube diameter [1, 20] was 122 μm and the “myotube diameter” value [2, 21] was “importantly increased myotube diameter”. For the same molecule, the “myotube differentiation” value [2, 21] was “enhanced myotube differentiation”, the “myotube formation and diameter” value ([2]; dystrophic cells, bortezomib together with FN) was “restored myotube formation (fusion capability) and improved myotube diameter” and the “% of cell differentiation” value (human DMD cells [3]; [22]) was 31%. The “% of cell differentiation” value (human DMD cells [3]; [23]) was 17%, the myotube diameter (human DMD cells [3]; [23]) was 17 μm and the myotube diameter (human DMD cells [3]; [24]) was 72 μm. The “% of cell differentiation” value (human DMD cells [3]; [25]) was 61%, the “% of cell differentiation” value (human DMD cells [3]; [26]) was 47% and the myotube diameter (human DMD cells [3]; [26]) was 45 μm. For the same molecule, the “% of cell differentiation” value (human DMD cells [4]; [27]) was 1%, the myotube diameter (human DMD cells [4]; [27]) was 2 μm and the myotube diameter (human DMD cells [4]; [22]) was 27 μm. For the same molecule, the “% of cell differentiation” value (human DMD cells [4]; [28]) was 5%, the myotube diameter (human DMD cells [4]; [28]) was 5 μm and the “% of cell differentiation” value (human DMD cells [4]; [29]) was 9%. The myotube diameter (human DMD cells [4]; [29]) was 15 μm, the “% of cell differentiation” value (human DMD cells [4]; [24]) was 80% and the myotube diameter (human DMD cells [4]; [25]) was 46 μm.
